The melting point is the temperature, or range, at which the solid turns liquid. Regarding `Cl.O=C1N(CCC2CCN(C3CCC3)CC2)c2ccccc2C12COc1cc3c(cc12)OCO3` (stereo not shown), the melting point was in the range of 158 to 160 °C.

In the case of `Cl.O=C1N(CCC2CCN(C3CCOCC3)CC2)c2ccccc2C12COc1cc3c(cc12)OCO3` (stereo not shown), the melting point lay within 168 to 170 °C.

As for `CC(C)N1CCC(CN2C(=O)C3(COc4cc5c(cc43)OCO5)c3cccc(F)c32)CC1.Cl` (stereo not shown), the melting point lay within 157 to 160 °C.

With `CC1(C)COc2cc3c(cc21)C1(CO3)C(=O)N(Cc2cccnc2)c2ccccc21.Cl` (stereo not shown), the melting point fell in the range of 124 to 126 °C.

In the case of `CC1(C)COc2cc3c(cc21)C1(CO3)C(=O)N(Cc2ccccn2)c2ccccc21.Cl` (stereo not shown), the melting point was 145 to 147 °C.

For the compound `CN(C)c1ccc(CN2C(=O)C3(COc4cc5c(cc43)OCO5)c3ccccc32)cn1.Cl` (stereo not shown), the melting point lay within 146 to 150 °C.

In turn, `Cl.O=C1N(Cc2ccc(N3CCOCC3)nc2)c2ccccc2C12COc1cc3c(cc12)OCO3` (stereo not shown) displayed a melting point of 185 to 200 °C.

`Cl.O=C1N(Cc2ccc(N3CCCC3)nc2)c2ccccc2C12COc1cc3c(cc12)OCO3` (stereo not shown): the melting point is 160 to 165 °C.

`Cl.O=C1N(Cc2ccccn2)c2ccccc2C12COc1cc3c(cc12)CCO3` (stereo not shown) registered a melting point of 208 to 210 °C.

`Cl.O=C1N(Cc2ccccn2)c2ccccc2C12COc1cc(OC(F)(F)F)ccc12` (stereo not shown) registered a melting point of 150 to 152 °C.

In the case of `Cl.O=C1N(Cc2cccnc2)c2ccccc2C12COc1cc(OC(F)(F)F)ccc12` (stereo not shown), the melting point fell in the range of 151 to 153 °C.

In turn, `Cl.O=C1N(CCN2CCCCC2)c2ccccc2C12COc1cc3c(cc12)OCO3` (stereo not shown) showed a melting point of more than 240 °C.

As to `Cl.O=C1N(CCC2CCN(C3CCCC3)CC2)c2ccccc2C12COc1cc3c(cc12)OCO3` (stereo not shown), the melting point was in the range of 153 to 155 °C.

`CC(C)N1CCC(CCN2C(=O)C3(COc4cc5c(cc43)OCO5)c3ccccc32)CC1.Cl` (stereo not shown) displayed a melting point of 155 to 156 °C.

As to `Cl.O=C1N(Cc2ccc(C(F)(F)F)o2)c2ccccc2C12COc1ccc(-c3cccnc3)cc12` (stereo not shown), the melting point fell in the range of 98 to 100 °C.

As to `COC(=O)c1ccccc1CN1C(=O)C2(COc3cc4c(cc32)OCO4)c2ccccc21` (stereo not shown) [Example 1.4, methyl 2-[(2′-oxospiro[furo[2,3-f][1,3]benzodioxole-7,3′-indol]-1′(2′H)-yl)methyl]benzoate], the melting point was 166 to 167 °C.

As for `O=C1Nc2ccccc2C12COc1cc3c(cc12)OCO3` (stereo not shown) [Example 1.8, spiro[furo[2,3-f][1,3]benzodioxole-7,3′-indol]-2′(1′H)-one], the melting point was 252 °C (dec.).

Regarding `CCCCCN1C(=O)C2(COc3cc(F)c(F)cc32)c2ccccc21` (stereo not shown) [Example 1.12, 5,6-difluoro-1′-pentylspiro[1-benzofuran-3,3′-indol]-2′(1′H)-one], the melting point fell in the range of 48 to 50 °C.

In turn, `CCCCCN1C(=O)C2(COc3cc(F)c(Cl)cc32)c2ccccc21` (stereo not shown) [Example 1.15, 5-chloro-6-fluoro-1′-pentylspiro[1-benzofuran-3,3′-indol]-2′(1′H)-one] returned a melting point of 74 to 76 °C.

Take `CC1(C)COc2cc3c(cc21)C1(CO3)C(=O)N(C(c2ccccc2)c2ccccc2)c2ccccc21` (stereo not shown) [Example 1.20, 1′-(diphenylmethyl)-5,5-dimethyl-5,6-dihydrospiro[benzo[1,2-b:5,4-b′]difuran-3,3′-indol]-2′(1′H)-one]: the melting point lay within 190 to 192 °C.

Compound `CC1(C)COc2cc3c(cc21)C1(CO3)C(=O)Nc2ccccc21` (stereo not shown) [Example 1.21, 5,5-dimethyl-5,6-dihydrospiro[benzo[1,2-b:5,4-b′]difuran-3,3′-indol]-2′(1′H)-one] gave a melting point of 95 to 100 °C.

For `CCCCCN1C(=O)C2(COc3cc4c(cc32)OCO4)c2c(Cl)ccc(Cl)c21` (stereo not shown) [Example 1.22, 4′,7′-dichloro-1′-pentylspiro[furo[2,3-f][1,3]benzodioxole-7,3′-indol]-2′(1′H)-one], the melting point was in the range of 106 to 108 °C.

The compound `O=C1N(Cc2ccccn2)c2cccc(Br)c2C12COc1cc3c(cc12)CCO3` (stereo not shown) [Example 1.25, 4′-bromo-1′-(pyridin-2-ylmethyl)-5,6-dihydrospiro[benzo[1,2-b:5,4-b′]difuran-3,3′-indol]-2′(1′H)-one] came in with a melting point of more than 200 °C.

As to `O=C1N(Cc2ccc(C(F)(F)F)o2)c2ccc(F)cc2C12COc1cc3c(cc12)OCO3` (stereo not shown) [Example 1.26, 5′-fluoro-1′-{[5-(trifluoromethyl)-2-furyl]methyl}spiro[furo[2,3-f][1,3]benzodioxole-7,3′-indol]-2′(1′H)-one], the melting point was in the range of 139 to 141 °C.

`Cc1ccc2c(c1)C1(COc3cc4c(cc31)OCO4)C(=O)N2` (stereo not shown) [Example 1.28, 5′-methylspiro[furo[2,3-f][1,3]benzodioxole-7,3′-indol]-2′(1′H)-one] had a melting point of 269 to 271 °C.

As for `CCCCCN1C(=O)C2(COc3cc4nc(C)sc4cc32)c2ccccc21` (stereo not shown) [Example 1.32, 2-methyl-1′-pentylspiro[furo[2,3-f][1,3]benzothiazole-7,3′-indol]-2′(1′H)-one], the melting point lay in the range of 105 to 107 °C.

In turn, `O=C1N(Cc2ccc(C(F)(F)F)o2)c2ccccc2C12COc1ccc(Br)cc12` (stereo not shown) [Example 1.33, 5-bromo-1′-{[5-(trifluoromethyl)-2-furyl]methyl}spiro[1-benzofuran-3,3′-indol]-2′(1′H)-one] showed a melting point of 143 to 145 °C.

`O=C1Nc2ccccc2C12COc1ccc(Br)cc12` (stereo not shown) [Example 1.34, 5-bromospiro[1-benzofuran-3,3′-indol]-2′(1′H)-one] showed a melting point of 225 to 228 °C.

With `O=C1Nc2ccccc2C12COc1cc(OC(F)(F)F)ccc12` (stereo not shown) [Example 1.36, 6-(trifluoromethoxy)spiro[1-benzofuran-3,3′-indol]-2′(1′H)one], the melting point is 180 to 182 °C.

For `CCOC(=O)CN1C(=O)C2(COc3cc(F)c(F)cc32)c2c(Br)cccc21` (stereo not shown) [Example 1.47, ethyl (4′-bromo-5,6-difluoro-2′-oxospiro[1-benzofuran-3,3′-indol]-1′(2′H)-yl)acetate], the melting point is 133 to 134 °C.

For `O=C1Nc2ccccc2C12COc1cc3c(cc12)CCO3` (stereo not shown) [Example 1.51, 5,6-dihydrospiro[benzo[1,2-b:5,4-b′]difuran-3,3′-indol]-2′(1′H)-one], the melting point was in the range of 208 to 210 °C.

The compound `COc1cccc2c1C1(COc3cc4c(cc31)OCO4)C(=O)N2Cc1ccc(C(F)(F)F)o1` (stereo not shown) [Example 1.53, 4′-methoxy-1′{[5-(trifluoromethyl)-2-furyl]methyl}spiro[furo[2,3-f][1,3]benzodioxole-7,3′-indol]-2′(1′H)-one] showed a melting point of 149 to 153 °C.

Take `O=C(O)CN1C(=O)C2(COc3cc4c(cc32)CCO4)c2c(Cl)cccc21` (stereo not shown) [Example 2.2, (4′-chloro-2′-oxo-5,6-dihydrospiro[benzo[1,2-b:5,4-b′]difuran-3,3′-indol]-1′(2′H)-yl)acetic acid]: the melting point lay in the range of 228 to 229 °C.

Turning to `O=C(CN1C(=O)C2(COc3cc4c(cc32)CCO4)c2c(Cl)cccc21)Nc1ccccc1F` (stereo not shown) [Example 3.6, 2-(4′-chloro-2′-oxo-5,6-dihydrospiro[benzo[1,2-b:5,4-b′]difuran-3,3′-indol]-1′(2′H)-yl)-N-(2-fluorophenyl)acetamide], the melting point was 243 to 245 °C.
